Laboratory results taken from patent US20110183961A1, “AZETIDINE POLYSUBSTITUTED COMPOUNDS, PREPARATION THEREOF, AND THERAPEUTIC APPLICATION THEREOF” (SANOFI-AVENTIS, priority 2008, published 2011).
pIC50: −log10 of the molar value.

Experiments:
[1] = biological target: T1, human CB1 receptor (Homo sapiens, UniProt P21554); assay: intracellular cyclic AMP functional test in U373MG cells (HTRF cAMP Dynamic Kit); format: cell-based; settings: U373MG cells naturally expressing the human CB1 receptor
T1 construct: U373MG cells naturally expressing the human CB1 receptor; endogenous in cells; host or cells: U373MG cells
Protocol: The compounds according to the invention have been the subject of pharmacological assays which make it possible to determine the activity with respect to human CB1-type cannabinoid receptors. The effectiveness of the compounds of formula (I) was determined in a functional test in which the activity of the CB1 cannabinoid receptors is measured (intracellular cyclic AMP test). The test for detecting intracellular cyclic AMP in U373MG cells naturally expressing the human CB1 receptor was carried out as described in the reference: Bouaboula et al., 1995, J. Biol. Chem. 270:13973-13980. The HTRF cAMP Dynamic Kit from CisBio was used to quantify the intracellular cyclic AMP. In this test, the IC50 values are between 0.001 μM and 1 μM.

[2] = biological target: T2, CB1 cannabinoid receptor (Mus musculus, UniProt P47746); assay: inhibition of gastrointestinal transit induced by racemic CP55,940 in mice (charcoal bolus); format: in vivo; settings: male CD1 mice, 3 hours after administration of the product, CP55,940 0.15 mg/kg ip
T2 construct: male CD1 mice receive the test product per os; from tissue; host or cells: whole animal, male CD1 mice (gastrointestinal tract)
Protocol: Their antagonist activity was also shown by means of the model of inhibition of gastrointestinal transit induced by racemic CP55,940 (1RS, 3RS, 4RS)-3-[hydroxy-2-(1,1-dimethylheptyl)phenyl]-4-(3-hydroxypropyl)cyclohexan-1-ol) in mice, according to the method described by Rinaldi-Carmona et al., J. Pharmacol. Exp. Ther. 2004, 310, 905-914. Briefly, male CD1 mice receive the test product per os 30 minutes or 2 hours before administration of the racemic CP55,940 agonist ((1RS, 3RS, 4RS)-3-[hydroxy-2-(1,1-dimethylheptyl)phenyl]-4-(3-hydroxypropyl)cyclohexan-1-ol) (0.15 mg/kg ip in 10% cremophor). After a further 30 minutes, the animals receive a charcoal bolus po. Thirty minutes later, the animals are sacrificed by euthanasia (CO2/O2) and the intestine is dissected. The progression of the charcoal bolus in the intestine is expressed as percentage of the total length of the intestine.

T1 sequence (P21554 whole entry): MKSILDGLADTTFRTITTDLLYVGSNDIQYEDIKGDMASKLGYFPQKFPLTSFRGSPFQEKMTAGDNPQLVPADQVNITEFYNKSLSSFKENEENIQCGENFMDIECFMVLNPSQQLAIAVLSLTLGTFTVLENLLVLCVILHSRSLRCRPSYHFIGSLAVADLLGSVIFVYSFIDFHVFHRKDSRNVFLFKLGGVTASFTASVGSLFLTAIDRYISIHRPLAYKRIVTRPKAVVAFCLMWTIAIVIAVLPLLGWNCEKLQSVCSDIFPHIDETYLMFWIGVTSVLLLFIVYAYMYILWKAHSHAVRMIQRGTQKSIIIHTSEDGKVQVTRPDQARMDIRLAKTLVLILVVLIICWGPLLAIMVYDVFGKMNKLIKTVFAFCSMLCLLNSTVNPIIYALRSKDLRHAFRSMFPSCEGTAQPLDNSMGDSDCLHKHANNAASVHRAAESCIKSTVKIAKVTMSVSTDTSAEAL
T2 sequence (P47746 whole entry): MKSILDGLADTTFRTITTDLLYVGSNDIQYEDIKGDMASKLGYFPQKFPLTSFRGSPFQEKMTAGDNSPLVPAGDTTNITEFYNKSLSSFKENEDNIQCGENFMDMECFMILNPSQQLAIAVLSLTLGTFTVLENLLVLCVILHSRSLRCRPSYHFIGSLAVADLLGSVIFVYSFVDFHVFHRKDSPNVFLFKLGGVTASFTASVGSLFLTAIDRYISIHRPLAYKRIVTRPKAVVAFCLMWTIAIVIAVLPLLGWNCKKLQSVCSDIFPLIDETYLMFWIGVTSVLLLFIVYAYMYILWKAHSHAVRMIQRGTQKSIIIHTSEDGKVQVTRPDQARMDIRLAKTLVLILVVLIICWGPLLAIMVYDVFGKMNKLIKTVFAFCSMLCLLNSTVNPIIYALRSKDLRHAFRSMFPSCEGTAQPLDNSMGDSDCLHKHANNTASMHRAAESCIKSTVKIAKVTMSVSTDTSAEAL

| melting point [°C] | pIC50 [1] | SMILES | other results |
| --- | --- | --- | --- |
| 122 |  | CCN1CCCC1CNC(=O)c1cccc(N(C2CN(C(c3ccc(Cl)cc3)c3ccc(Cl)cc3)C2)S(C)(=O)=O)c1 (single isomer, unassigned; (+)) [Compound No. 6, (+)-3-[{1[bis(4-Chlorophenyl)methyl]azetidin-3-yl}(methyl-sulphonyl)amino]-N-{[1-ethylpyrrolidin-2-yl]methyl}benzamide] |  |
|  | 8.15 | CS(=O)(=O)N(c1cc(F)cc(C(=O)NC2CCNC2=O)c1)C1CN(C(c2ccc(Cl)cc2)c2ccc(Cl)cc2)C1 (single isomer, unassigned; (-)) [Compound No. 16, (−)-3-[{1-[bis(4-Chlorophenyl)methyl]azetidin-3-yl}(methylsulphonyl)amino]-5-fluoro-N-[2-oxopyrrolidin-3-yl]benzamide] |  |
|  | 8.05 | CS(=O)(=O)N(c1cc(F)cc(C(=O)NC2CCNC2=O)c1)C1CN(C(c2ccc(Cl)cc2)c2ccc(Cl)cc2)C1 (centres unmarked) [Compound No. 14, 3-[{1[bis(4-Chlorophenyl)methyl]azetidin-3-yl}(methyl-sulphonyl)amino]-5-fluoro-N-(2-oxopyrrolidin-3-yl)benzamide] |  |
|  | 7.33 | CS(=O)(=O)N(c1cccc(C(=O)NC2CCS(=O)(=O)C2)c1)C1CN(C(c2ccc(Cl)cc2)c2ccc(Cl)cc2)C1 (centres unmarked) [Compound No. 2, 3-[{1-[bis(4-Chlorophenyl)methyl]azetidin-3-yl}(methylsulphonyl)amino]-N-(1,1-dioxidotetrahydrothiophen-3-yl)benzamide] | percentage inhibition, gastrointestinal transit model ([2]; 2 mg/kg per os): 57% |
| 130 | 6.89 | CS(=O)(=O)N(c1cccc(C(=O)NCCN2CCNC2=O)c1)C1CN(C(c2ccc(Cl)cc2)c2ccc(Cl)cc2)C1 [compound 9, 3-[{1-[bis(4-chlorophenyl)methyl]azetidin-3-yl}(methylsulphonyl)amino]-N-[2-(2-oxoimidazolidin-1-yl)ethyl]benzamide] |  |
| 128 |  | CCN1CCCC1CNC(=O)c1cccc(N(C2CN(C(c3ccc(Cl)cc3)c3ccc(Cl)cc3)C2)S(C)(=O)=O)c1 (single isomer, unassigned; (-)) [Compound No. 5, (−)-3-[{1-[bis(4-Chlorophenyl)methyl]azetidin-3-yl}(methyl-sulphonyl)amino]-N-{[1-ethylpyrrolidin-2-yl]methyl}benzamide] | percentage inhibition, gastrointestinal transit model ([2]; 1 mg/kg per os): 39% |
| 210 |  | CS(=O)(=O)N(c1cccc(C(=O)NC2CCSCC2)c1)C1CN(C(c2ccc(Cl)cc2)c2ccc(Cl)cc2)C1 [compound 10, 3-[{1-[bis(4-chlorophenyl)methyl]azetidin-3-yl}(methylsulphonyl)amino]-N-(tetrahydro-2H-thiopyran-4-yl)benzamide] |  |
| 270 |  | CS(=O)(=O)N(c1cccc(C(=O)NC2CCS(=O)(=O)CC2)c1)C1CN(C(c2ccc(Cl)cc2)c2ccc(Cl)cc2)C1 [compound 11, 3-[{1-[bis(4-chlorophenyl)methyl]azetidin-3-yl}(methylsulphonyl)amino]-N-(1,1-dioxidotetrahydro-2H-thiopyran-4-yl)benzamide] |  |
